According to patent US20230381142A1, “ANTILEISHMANIAL COMPOUNDS, COMPOSITIONS AND USE THEREOF” (TRUSTEES OF BOSTON UNIVERSITY, priority 2022, published 2023):
Where two headings read alike, the source gives them in different places.

How the values were obtained:
[1] = test system: L. donovani intracellular amastigotes in B10R cells; assay: UCSD L. donovani infection assay (Assay Conditions D); type: cell-based; conditions: B10R cells; for L. donovani amastigotes EC75 (B10R cells): footnote d; for EC50: Leishmania donovani, values marked d, read-out: L. donovani amastigotes EC50 (B10R cells)
Experimental: (§1) Assay Conditions D: B10R cells (CVCL_0155) were seeded at 300 cells/well, and L. donovani WT promastigotes in stationary phase (7th day after passage) were added at 6,000 parasites/well (ratio of 20 parasites/cell). Both cells and parasites were seeded in DMEM High-Glucose medium (Gibco, cat. no. 11995065) containing 5% Fetal Bovine Serum (Sigma-Aldrich, cat. no. F2442) and 1% Penicillin-Streptomycin (Gibco, cat. no. 15140122). Cells and parasites were incubated in the presence of the compounds for 72 h at 37° C. and 5% C02. Plates were then fixed with 4% formaldehyde solution for at least 1 h, then washed with 1×PBS and stained with 5 μg/mL DAPI. Plates were read using an ImageXpress microscope (Molecular Devices) and analyzed by MetaXpress software (Molecular Devices) using a custom module optimized for this assay. […] Compounds were tested in a 10-point 2-fold serial dilution in 3 technical replicates, and 2 biological replicates. After 72 h, plates were fixed and stained with DAPI as described above. Images were acquired on an ImageXpress microscope, and analyzed using the MetaXpress custom module.
as §1, with “Compounds were obtained as 0.2 μmoles of dried film for primary single point screening. Each compound was diluted in DMSO to 10 μM final testing concentration. These compounds were tested in 2 biological replicates. The compounds were pre-spotted onto 384-well assay plates in single concentration.” for “Assay Conditions D:”, “CO2.” for “C02.”, “module. The DRCs were plotted, half-effective concentration (EC50) and half-cytotoxic concentration (CC50) were calculated using GraphPad Prism Software, version 6.05 (GraphPad Software, San Diego, CA).” for “module.”

[2] = test system: L. donovani intracellular amastigotes infecting THP-1 macrophages; assay: GSK intramacrophage L. donovani assay (LD AMMAC, inMac; Assay Conditions C); type: cell-based; conditions: Leishmania donovani
Method in brief: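 EC50 values come from counting amastigotes per infected THP-1 macrophage (AMMAC). Parallel read-outs give percentage of infected cells per well (INFCELL) and a macrophage-number toxicity EC50 (MAC).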

[3] = GSK inMac assay, host cell toxicity readout (LD MAC); type: cell-based, human; conditions: human
Method in brief: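 MAC EC50 reflects THP-1 host cell counts, measured within GSK's inMac L. donovani infection assay that also scores intracellular amastigotes and infected-cell percentage.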

[4] = THP-1 cells, values marked c, read-out: L. donovani amastigotes EC50 (THP-1 cells)
[5] = footnote c, read-out: THP-1 Host Cell CC50
[6] = values marked c: THP-1 cells, read-out: L. donovani amastigotes EC50 (μM, THP-1 or B10R cells)

| Structure (SMILES) | EC50 [2, 4] [µM] | CC50 [3, 5] [µM] | also measured |
| --- | --- | --- | --- |
| CC(C)Cc1n[nH]c2c1C(c1ccc(F)cc1)N(c1ccc3ncnn3c1)C2=O (stereo not shown) [CMLD010888] | 5 | > 50 | L. donovani amastigotes EC75 (B10R cells) [1]: 2.3 µM |
| CC(C)Cc1n[nH]c2c1C(c1ccccc1Cl)N(c1ccc3ncnn3c1)C2=O (stereo not shown) [CMLD010921] | – | > 20 | L. donovani amastigotes EC75 (B10R cells) [1]: 0.6 µM; EC50 [1]: 0.6 µM |
| C#CCn1nc2c(c1CC(C)C)C(c1ccc(F)cc1)N(c1ccc(OC)cc1)C2=O (stereo not shown) [CMLD010986] | – | – | L. donovani amastigotes EC75 (μM, B10R cells) [1]: >10 µM; EC50 [2, 6]: 3.2 µM; CC50 ([3]; host THP-1 cells): 25.1 µM |
| C#CCn1nc(CC(C)C)c2c1C(=O)N(c1ccc(OC)cc1)C2c1ccc(F)cc1 (stereo not shown) [CMLD010987] | 1.6 | 20 | L. donovani amastigotes EC75 (B10R cells) [1]: 4.0 µM |
| CC(C)Cc1n[nH]c2c1C(c1ccc(F)cc1)N(CCN1CCCC1)C2=O (stereo not shown) [CMLD011072] | 15.9 | > 50 | L. donovani amastigotes EC75 (B10R cells) [1]: >10 µM |
| COCCN1C(=O)c2[nH]nc(CC(C)C)c2C1c1ccc(F)cc1 (stereo not shown) [CMLD011117] | > 50 | > 50 | – |
| CC(C)Cc1n[nH]c2c1C(c1cccc(C(F)(F)F)c1)N(c1ccc(F)cc1)C2=O (stereo not shown) [CMLD011119] | 2.5 | 25.1 | – |
| COc1ccc(N2C(=O)c3[nH]nc(CC(C)C)c3C2c2ccc(F)c(C)n2)cc1 (stereo not shown) [CMLD011120] | 12.6 | > 50 | – |
| COc1ccc(N2C(=O)c3[nH]nc(CC(C)C)c3C2c2ccc(C(F)(F)F)cc2)cc1 (stereo not shown) [CMLD011121] | 8 | 15.9 | – |
| CC(C)Cc1n[nH]c2c1C(c1cccc(C(F)(F)F)c1)N(c1ccc(C(C)(C)C)cc1)C2=O (stereo not shown) [CMLD011122] | 6.3 | 10 | – |
| CC(C)Cc1n[nH]c2c1[C@@H](c1ccc(F)cc1)N([C@H]1CC[C@H](N(C)C)CC1)C2=O [CMLD011124] | 25.1 | > 50 | – |
| COc1ccc(N2C(=O)c3[nH]nc(CC(C)C)c3C2c2ccccn2)cc1 (stereo not shown) [CMLD011125] | 31.6 | > 50 | – |
| CC(C)Cc1n[nH]c2c1C(c1cccc(C(F)(F)F)c1)N(CCN1CCCC1)C2=O (stereo not shown) [CMLD011126] | 20 | 39.8 | – |
| CC(C)Cc1n[nH]c2c1C(c1ccc(F)cc1)N(CC1CCN(C)C1)C2=O (stereo not shown) [CMLD011129] | > 50 | > 50 | – |
| COc1ccccc1N1C(=O)c2[nH]nc(CC(C)C)c2C1c1ccccc1Cl (stereo not shown) [CMLD011130] | 15.8 | 25.1 | – |
| CC(C)Cc1n[nH]c2c1C(c1cccc(Cl)c1)N(c1ccc(C(C)(C)C)cc1)C2=O (stereo not shown) [CMLD011131] | 2.5 | 15.8 | – |
| CC(C)Cc1n[nH]c2c1C(c1cccc(Cl)c1)N(c1ccc3c(c1)OCO3)C2=O (stereo not shown) [CMLD011132] | 5 | 20 | – |
| COc1cccc(N2C(=O)c3[nH]nc(CC(C)C)c3C2c2cccc(Cl)c2)c1 (stereo not shown) [CMLD011133] | 5 | 25.1 | – |
| COc1ccccc1N1C(=O)c2[nH]nc(CC(C)C)c2C1c1cccc(Cl)c1 (stereo not shown) [CMLD011134] | 7.9 | 15.8 | – |
| CC(C)Cc1n[nH]c2c1C(c1ccsc1)N(c1ccc(C(C)(C)C)cc1)C2=O (stereo not shown) [CMLD011135] | 4 | > 50 | – |
| CC(C)Cc1n[nH]c2c1C(c1ccsc1)N(c1ccc3c(c1)OCO3)C2=O (stereo not shown) [CMLD011136] | – | – | L. donovani amastigotes EC75 (μM, B10R cells) [1]: 3.6 µM; EC50 [2, 6]: 5 µM; CC50 ([3]; host THP-1 cells): ≥ 50.1 µM |
| COc1ccc(N2C(=O)c3[nH]nc(CC(C)C)c3C2c2ccsc2)cn1 (stereo not shown) [CMLD011137] | 10 | 25.1 | – |
| COc1ccccc1N1C(=O)c2[nH]nc(CC(C)C)c2C1c1ccsc1 (stereo not shown) [CMLD011138] | 7.9 | 15.8 | – |
| COc1cccc(N2C(=O)c3[nH]nc(CC(C)C)c3C2c2cccc(C(F)(F)F)c2)c1 (stereo not shown) [CMLD011140] | 5 | 20 | – |

| Structure (SMILES) | EC50 [2, 4] [µM] | CC50 [3, 5] [µM] | also measured |
| --- | --- | --- | --- |
| COc1ccccc1N1C(=O)c2[nH]nc(CC(C)C)c2C1c1cccc(C(F)(F)F)c1 (stereo not shown) [CMLD011141] | 7.9 | 20 | – |
| COc1ccc(N2C(=O)c3[nH]nc(CC(C)C)c3C2c2ccncc2)cc1 (stereo not shown) [CMLD011142] | > 50 | > 50 | – |
| CC(C)Cc1n[nH]c2c1C(c1ccc(F)cc1)N(c1ccc(S(N)(=O)=O)cc1)C2=O (stereo not shown) [CMLD011495] | > 100 | 20 | – |
| COc1ccc(N2C(=O)c3[nH]nc(CC(C)C)c3C2c2ccncc2Cl)cc1 (stereo not shown) [CMLD011496] | 10 | 20 | – |
| CC(C)Cc1n[nH]c2c1C(c1ccc(F)cc1)N(c1ccccc1N(C)C)C2=O (stereo not shown) [CMLD011499] | 3.2 | 10 | – |
| COc1ccccc1C1c2c(CC(C)C)n[nH]c2C(=O)N1c1ccc2c(c1)OCO2 (stereo not shown) [CMLD011546] | – | > 20 | L. donovani amastigotes EC75 (B10R cells) [1]: 0.3 µM; EC50 [1]: 0.3 µM |
| CC(C)Cc1n[nH]c2c1C(c1c(Cl)cccc1Cl)N(c1ccc3c(c1)OCO3)C2=O (stereo not shown) [CMLD011547] | 2.5 | 20 | – |
| CC(C)Cc1n[nH]c2c1C(c1c(Cl)cccc1Cl)N(c1ccc(Br)cc1)C2=O (stereo not shown) [CMLD011550] | 7.9 | 20 | – |
| COc1ncc(N2C(=O)c3[nH]nc(CC(C)C)c3C2c2ccc(F)cc2)cc1C (stereo not shown) [CMLD011555] | – | – | L. donovani amastigotes EC75 (μM, B10R cells) [1]: 1.7 µM; EC50 [2, 6]: 10 µM; CC50 ([3]; host THP-1 cells): 20 µM |
| CC(C)Cc1n[nH]c2c1C(c1ccc(F)cc1)N(c1ccc3[nH]c(O)nc3c1)C2=O (stereo not shown) [CMLD011556] | > 100 | 20 | – |
| CC(C)Cc1n[nH]c2c1C(c1ccc(F)cc1)N(c1ccc3[nH]cnc3c1)C2=O (stereo not shown) [CMLD011557] | > 100 | 20 | – |
| CC(C)Cc1n[nH]c2c1C(c1ccc(F)cc1)N(c1ccc(S(=O)(=O)N3CCCC3)cc1)C2=O (stereo not shown) [CMLD011558] | > 100 | 20 | – |
| COc1ccc(N2C(=O)c3[nH]nc(CC(C)C)c3C2c2cccnc2Cl)cc1 (stereo not shown) [CMLD011559] | > 100 | 20 | – |
| CC(C)Cc1n[nH]c2c1C(c1ccc(F)cc1)N(c1ccc(N3CCCC3=O)cc1)C2=O (stereo not shown) [CMLD011560] | – | – | L. donovani amastigotes EC75 (μM, B10R cells) [1]: 1.0 µM; EC50 [2, 6]: 4 µM; CC50 ([3]; host THP-1 cells): 20 µM |
| COc1ccc(N2C(=O)c3[nH]nc(CC(C)C)c3C2c2c(Cl)cccc2Cl)cc1F (stereo not shown) [CMLD011568] | 6.3 | 20 | – |
| COc1ccc(N2C(=O)c3[nH]nc(CC(C)C)c3C2c2c(Cl)cccc2Cl)cn1 (stereo not shown) [CMLD011569] | 5 | 20 | – |
| COc1ccc(N2C(=O)c3[nH]nc(CC(C)C)c3C2c2ccc(F)cc2OC)cc1F (stereo not shown) [CMLD011573] | 0.5 | 7.9 | – |
| COc1ccc(N2C(=O)c3[nH]nc(CC(C)C)c3C2c2ncccc2Cl)cc1 (stereo not shown) [CMLD011575] | 10 | 20 | – |
| COc1ccc(N2C(=O)c3[nH]nc(CC(C)C)c3C2c2cccnc2OC)cc1 (stereo not shown) [CMLD0011576] | 25.1 | 10 | – |
| COc1ccc(N2C(=O)c3[nH]nc(CC(C)C)c3C2c2cnccc2OC)cc1 (stereo not shown) [CMLD011577] | 10 | 20 | – |
| COc1ccc(N2C(=O)c3[nH]nc(CC(C)C)c3C2c2ncccc2OC)cc1 (stereo not shown) [CMLD011578] | > 100 | 20 | – |
| COc1ccc(N2C(=O)c3[nH]nc(CC(C)C)c3C2c2cnccc2Cl)cc1 (stereo not shown) [CMLD011579] | > 100 | 20 | – |
| COc1ccc(N2C(=O)c3[nH]nc(CC(C)C)c3C2c2ccccc2Br)cn1 (stereo not shown) [CMLD012218] | – | > 20 | L. donovani amastigotes EC75 (B10R cells) [1]: 0.4 µM; EC50 [1]: 1 µM |
| COc1ccc(N2C(=O)c3[nH]nc(CC(C)C)c3C2c2ccc(F)c(F)c2)cc1 (stereo not shown) [CMLD013640] | 5 | 25.1 | – |
